Measured values taken from patent publication US11602567B2, “Methods for modulating RNA splicing” (PTC Therapeutics, Inc., priority 2015, dated 2023).

Legend:
Test in all cases: Endpoint RT-PCR analysis of alternatively spliced mRNAs in cultured cells
Format in all cases: cell-based, human
COL5A2 exon 13 = settings: COL5A2 exon 13, sequence CCGAgtaagt; GM03813 cells, 24 hours; without compound 100
Protocol: (§1) Endpoint RT-PCR Analysis of Alternatively Spliced mRNAs in Cultured Cells GM03813 cells derived from a patient with SMA type I (Coriell Institute) were plated at 5,000 cells/well in 200 μl DMEM with 10% FBS in 96-well plates, and incubated for 6 hours in a cell culture incubator (37° C., 5% CO2, 100% relative humidity). Cells were then treated with Compound 702 at different concentrations (in 0.5% DMSO) in duplicate for 24 hours. After removal of the supernatant, cells were lysed in Cells-To-Ct lysis buffer (Life Technologies, Inc.). Reverse transcription was performed using 5 μl of cell lysate and the iScript RT enzyme kit (Bio-Rad Laboratories, Inc). PCR was performed using 5 μl of cDNA and Platinum Taq HiFi DNA Polymerase (Life Technologies, Inc.) under the following PCR conditions: Step 1: 94° C. (2 min), Step 2: 94° C. (30 sec), Step 3: 55° C. (30 sec), Step 4: 68° C. (1 min), then repeat Steps 2 to 4 for 33 cycles, then hold at 4° C. PCR products were separated on 2% agarose E-gels, stained with ethidium bromide and visualized using a gel imager (UVP). [table]

ERGIC3 exon 8 = settings: ERGIC3 exon 8, sequence GAGAgtaagt; GM03813 cells, 24 hours; without compound 0
Protocol: as §1

GGCT exon 2 = settings: GGCT exon 2, sequence ATGAgtaggt; GM03813 cells, 24 hours; without compound 40
Protocol: as §1

COL1A1 exon 32 = settings: COL1A1 exon 32, sequence CAGAgtaagt; GM03813 cells, 24 hours; without compound 90
Protocol: as §1

PRKDC exon 51 = settings: PRKDC exon 51, sequence GCGAgtacgt; GM03813 cells, 24 hours; without compound 100
Protocol: as §1

ARMCX6 exon 3 = settings: ARMCX6 exon 3, sequence TAGAgtatga; GM03813 cells, 24 hours; without compound 0
Protocol: as §1

COL1A2 exon 30 = settings: COL1A2 exon 30, sequence AAGAgtaagt; GM03813 cells, 24 hours; without compound 100
Protocol: as §1

SMN2 exon 5 = settings: SMN2 exon 5, sequence ACCAgtaagt; GM03813 cells, 24 hours; without compound 50
Protocol: as §1

PARP1 exon 22 = settings: PARP1 exon 22, sequence ACGAgtatcc; GM03813 cells, 24 hours; without compound 100
Protocol: as §1

COL1A1 exon 11 = settings: COL1A1 exon 11, sequence CAGAgtgagt; GM03813 cells, 24 hours; without compound 100
Protocol: as §1

COL1A2 exon 22 = settings: COL1A2 exon 22, sequence CAGAgtaagt; GM03813 cells, 24 hours; without compound 100
Protocol: as §1

COL3A1 exon 10 = settings: COL3A1 exon 10, sequence CAGAgtaagt; GM03813 cells, 24 hours; without compound 100
Protocol: as §1

STRN3 exon 8 = settings: STRN3 exon 8, sequence AAGAgtaagt; GM03813 cells, 24 hours; without compound 10
Protocol: as §1

COL5A2 exon 49 = settings: COL5A2 exon 49, sequence AAGAgtaagt; GM03813 cells, 24 hours; without compound 90
Protocol: as §1

COL3A1 exon 46 = settings: COL3A1 exon 46, sequence CAGAgtaagt; GM03813 cells, 24 hours; without compound 100
Protocol: as §1

PRKDC exon 11 = settings: PRKDC exon 11, sequence AGGAgtatgt; GM03813 cells, 24 hours; without compound 100
Protocol: as §1

[1] = test system: FOXM1 exon 7A […]C (34 nucleotides); settings: sequence ATGAgtaagt, GM03813 cells, 24 hours, without compound 0
Protocol: as §1

COL5A2 exon 34 = settings: COL5A2 exon 34, sequence CAGAgtaagt; GM03813 cells, 24 hours; without compound 100
Protocol: as §1

COL5A2 exon 32 = settings: COL5A2 exon 32, sequence TAGAgtaagt; GM03813 cells, 24 hours; without compound 100
Protocol: as §1

LARP7 exon 2 = settings: LARP7 exon 2, sequence AAGAgtaaga; GM03813 cells, 24 hours; without compound 10
Protocol: as §1

RCC 1 exon 4 = settings: RCC 1 exon 4, sequence AGAGgtaaga; GM03813 cells, 24 hours; without compound 90
Protocol: as §1

DIAPH3 exon 11 = settings: DIAPH3 exon 11, sequence TTGAatatcc; GM03813 cells, 24 hours; without compound 100
Protocol: as §1

SMN2 exon 7 = settings: SMN2 exon 7, sequence AGGAgtaagt; GM03813 cells, 24 hours; % inclusion of exon without compound 40
Protocol: as §1

GALC exon 5 = settings: GALC exon 5, sequence TGGAgttagt; GM03813 cells, 24 hours; without compound 90
Protocol: as §1

COL1A1 exon 46 = settings: COL1A1 exon 46, sequence CCGAgtaagt; GM03813 cells, 24 hours; without compound 100
Protocol: as §1

FADS2 exon 6 = settings: FADS2 exon 6, sequence CTGAgtaagt; GM03813 cells, 24 hours; without compound 100
Protocol: as §1

FN1 exon 35 = settings: FN1 exon 35, sequence GAGAgtaagt; GM03813 cells, 24 hours; without compound 100
Protocol: as §1

VPS29 exon 2 = settings: VPS29 exon 2, sequence CAGAgtaagt; GM03813 cells, 24 hours; without compound 40
Protocol: as §1

COL1A1 exon 30 = settings: COL1A1 exon 30, sequence AAGAgtaagt; GM03813 cells, 24 hours; without compound 60
Protocol: as §1

APLP2 exon 7 = settings: APLP2 exon 7, sequence ATGAgtaagt; GM03813 cells, 24 hours; without compound 10
Protocol: as §1

LAMA2 exon 5 = settings: LAMA2 exon 5, sequence AAGAgtaagt; GM03813 cells, 24 hours; without compound 100
Protocol: as §1

COL1A1 exon 5 = settings: COL1A1 exon 5, sequence AGGAgtaagt; GM03813 cells, 24 hours; without compound 0
Protocol: as §1

COL1A2 exon 21 = settings: COL1A2 exon 21, sequence GAGAgtaggt; GM03813 cells, 24 hours; without compound 100
Protocol: as §1

[2] = test system: FOXM1 exon 7A (114 nucleotides); settings: sequence ATCAgtaagt, GM03813 cells, 24 hours, without compound 0
Protocol: as §1

LARP7 exon 1 = settings: LARP7 exon 1, sequence CGGAgtaagt; GM03813 cells, 24 hours; without compound 0
Protocol: as §1

MADD exon 21 = settings: MADD exon 21, sequence CAGAgtaagg; GM03813 cells, 24 hours; without compound 0
Protocol: as §1

COL5A2 exon 35 = settings: COL5A2 exon 35, sequence AAGAgtaagt; GM03813 cells, 24 hours; without compound 100
Protocol: as §1

## CCN1CCC(c2cc(C)c3nc(-c4cc5c(C)nc(C)cn5n4)cc(=O)n3c2)CC1 [Compound 702]
COL5A2 exon 13
  % Inclusion of Exon with Compound: no change
ERGIC3 exon 8
  % Inclusion of Exon with Compound: 10%
GGCT exon 2
  % Inclusion of Exon with Compound: 95%
COL1A1 exon 32
  % Inclusion of Exon with Compound: no change
PRKDC exon 51
  % Inclusion of Exon with Compound: no change
ARMCX6 exon 3
  % Inclusion of Exon with Compound: no change
COL1A2 exon 30
  % Inclusion of Exon with Compound: no change
SMN2 exon 5
  % Inclusion of Exon with Compound: no change
PARP1 exon 22
  % Inclusion of Exon with Compound: no change
COL1A1 exon 11
  % Inclusion of Exon with Compound: no change
COL1A2 exon 22
  % Inclusion of Exon with Compound: no change
COL3A1 exon 10
  % Inclusion of Exon with Compound: no change
STRN3 exon 8
  % Inclusion of Exon with Compound: 100%
COL5A2 exon 49
  % Inclusion of Exon with Compound: no change
COL3A1 exon 46
  % Inclusion of Exon with Compound: no change
PRKDC exon 11
  % Inclusion of Exon with Compound: no change
[1]
  % Inclusion of Exon with Compound: 90%
COL5A2 exon 34
  % Inclusion of Exon with Compound: no change
COL5A2 exon 32
  % Inclusion of Exon with Compound: no change
LARP7 exon 2
  % Inclusion of Exon with Compound: 40%
RCC 1 exon 4
  % Inclusion of Exon with Compound: no change
DIAPH3 exon 11
  % Inclusion of Exon with Compound: no change
SMN2 exon 7
  % Inclusion of Exon with Compound: 100%
GALC exon 5
  % Inclusion of Exon with Compound: no change
COL1A1 exon 46
  % Inclusion of Exon with Compound: no change
FADS2 exon 6
  % Inclusion of Exon with Compound: no change
FN1 exon 35
  % Inclusion of Exon with Compound: no change
VPS29 exon 2
  % Inclusion of Exon with Compound: 100%
COL1A1 exon 30
  % Inclusion of Exon with Compound: 90%
APLP2 exon 7
  % Inclusion of Exon with Compound: 30%
LAMA2 exon 5
  % Inclusion of Exon with Compound: no change
COL1A1 exon 5
  % Inclusion of Exon with Compound: no change
COL1A2 exon 21
  % Inclusion of Exon with Compound: no change
[2]
  % Inclusion of Exon with Compound: 10%
LARP7 exon 1
  % Inclusion of Exon with Compound: 10%
MADD exon 21
  % Inclusion of Exon with Compound: 5%
COL5A2 exon 35
  % Inclusion of Exon with Compound: no change
